Data published in ChEMBL document CHEMBL5260833, “An overview of quinazolines: Pharmacological significance and recent developments” (Eur J Med Chem, 2018).

Experiments:
Rattus norvegicus = assay: Inhibition of AII induced mean arterial blood pressure in rat assessed as vasoconstrictor at 1 mg/kg, po; format: functional
[1] = Inhibition of Lacticaseibacillus casei TS
Thymidylate synthase = Thymidylate synthase (Homo sapiens, UniProt P04818); assay: Inhibition of human TS
Chain of Thymidylate synthase (P04818 whole entry): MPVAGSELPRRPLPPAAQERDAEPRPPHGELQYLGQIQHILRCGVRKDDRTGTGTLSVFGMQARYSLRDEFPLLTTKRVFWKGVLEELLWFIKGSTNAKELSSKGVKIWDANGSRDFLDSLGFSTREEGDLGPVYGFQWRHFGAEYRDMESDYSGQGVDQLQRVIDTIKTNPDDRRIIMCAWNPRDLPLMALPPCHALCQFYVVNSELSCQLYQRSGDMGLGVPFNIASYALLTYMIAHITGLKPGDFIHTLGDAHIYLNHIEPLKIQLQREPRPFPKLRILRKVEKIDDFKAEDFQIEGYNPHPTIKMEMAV

IC50 [1] | IC50 (Thymidylate synthase) | Structure (SMILES) | Activity (Rattus norvegicus)
 |  | CCCCc1nc2ccc([C@@]3(C(=O)N4CCCCC4)C[C@H]4CCCN4O3)cc2c(=O)n1Cc1ccc(-c2ccccc2-c2nnn[nH]2)cc1 | 55 mmHg
 |  | CCCCc1nc2ccc([C@H]3C[C@H]4CCCCN4O3)cc2c(=O)n1Cc1ccc(-c2ccccc2-c2nnn[nH]2)cc1 | 55 mmHg
 |  | CCCCc1nc2ccc([C@]3(CC)C[C@H]4CCCN4O3)cc2c(=O)n1Cc1ccc(-c2ccccc2-c2nn[nH]n2)cc1 | 55 mmHg
200 nM | 3 nM | COC(=O)[C@H](Cc1c[nH]c2ccccc12)NC(=O)c1ccc(Sc2c(C)ccc3nc(N)[nH]c(=O)c23)cc1 | 
 |  | CCCCc1nc2ccc([C@@]3(C)C[C@H]4CCCCN4O3)cc2c(=O)n1Cc1ccc(-c2ccccc2-c2nn[nH]n2)cc1 | 55 mmHg
200 nM | 3 nM | COC(=O)[C@H](Cc1ccc(N)cc1)NC(=O)c1ccc(Sc2c(C)ccc3nc(N)[nH]c(=O)c23)cc1 | 
 |  | CCCCc1nc2ccc([C@]3(C)C[C@H]4CCCCN4O3)cc2c(=O)n1Cc1ccc(-c2ccccc2-c2nn[nH]n2)cc1 | 55 mmHg
 |  | CCCCc1nc2ccc([C@@]3(C(=O)N4CCCC4)C[C@H]4CCCN4O3)cc2c(=O)n1Cc1ccc(-c2ccccc2-c2nnn[nH]2)cc1 | 55 mmHg
 |  | CCCCc1nc2ccc([C@]3(C)C[C@H]4CCCN4O3)cc2c(=O)n1Cc1ccc(-c2ccccc2-c2nn[nH]n2)cc1 | 55 mmHg
 |  | CCCCc1nc2ccc([C@H]3C[C@H]4CCCN4O3)cc2c(=O)n1Cc1ccc(-c2ccccc2-c2nnn[nH]2)cc1 | 55 mmHg
200 nM | 3 nM | Cc1ccc2nc(N)[nH]c(=O)c2c1Sc1ccc(C(=O)N[C@@H](Cc2ccccc2)C(=O)O)cc1 | 
200 nM | 3 nM | Cc1ccc2nc(N)[nH]c(=O)c2c1Sc1ccc(C(=O)N[C@H](CO)c2ccccc2)cc1 | 
200 nM | 3 nM | COC(=O)[C@@H](NC(=O)c1ccc(Sc2c(C)ccc3nc(N)nc(O)c23)cc1)c1ccccc1 | 
200 nM | 3 nM | Cc1ccc2nc(N)[nH]c(=O)c2c1Sc1ccc(C(=O)N[C@H](C)c2ccccc2)cc1 | 
 |  | CCCCc1nc2ccc([C@@]3(c4ccccc4)C[C@H]4CCCN4O3)cc2c(=O)n1Cc1ccc(-c2ccccc2-c2nnn[nH]2)cc1 | 55 mmHg
200 nM | 3 nM | COC(=O)c1cccc(NC(=O)c2ccc(Sc3c(C)ccc4nc(N)[nH]c(=O)c34)cc2)c1 | 
 |  | CCCCc1nc2ccc([C@]3(C)C[C@H]4CC[C@H](C)N4O3)cc2c(=O)n1Cc1ccc(-c2ccccc2-c2nnn[nH]2)cc1 | 55 mmHg
200 nM | 3 nM | COC(=O)[C@@H](NC(=O)c1ccc(Sc2c(C)ccc3nc(N)nc(O)c23)cc1)c1cccc(O)c1 | 
200 nM | 3 nM | COC(=O)[C@H](Cc1ccc(O)cc1)NC(=O)c1ccc(Sc2c(C)ccc3nc(N)[nH]c(=O)c23)cc1 | 
200 nM | 3 nM | Cc1ccc2nc(N)nc(O)c2c1Sc1ccc(C(=O)N[C@H](C(=O)O)c2cccc(O)c2)cc1 | 
200 nM | 3 nM | Cc1ccc2nc(N)nc(O)c2c1Sc1ccc(C(=O)N[C@H](C(=O)O)c2cccc(C(=O)O)c2)cc1 | 
200 nM | 3 nM | Cc1ccc2nc(N)[nH]c(=O)c2c1Sc1ccc(C(=O)Nc2cccc(C(=O)O)c2)cc1 | 
200 nM | 3 nM | COC(=O)[C@@H](NC(=O)c1ccc(Sc2c(C)ccc3nc(N)[nH]c(=O)c23)s1)c1ccccc1 | 
200 nM | 3 nM | COC(=O)[C@H](Cc1ccc(O)c(O)c1)NC(=O)c1ccc(Sc2c(C)ccc3nc(N)[nH]c(=O)c23)cc1 | 
200 nM | 3 nM | Cc1ccc2nc(N)nc(O)c2c1Sc1ccc(C(=O)N[C@H](C(=O)O)c2ccccc2)cc1 | 
200 nM | 3 nM | COC(=O)c1cccc([C@H](NC(=O)c2ccc(Sc3c(C)ccc4nc(N)nc(O)c34)cc2)C(=O)OC)c1 | 
